Measured values as given in article PMC4521150, “Discovery of Novel Inhibitors and Fluorescent Probe Targeting NAMPT” (Scientific Reports, 2015).

How the values were obtained:
recombinant human NAMPT [1] = biological target: T1, recombinant human NAMPT (Homo sapiens, UniProt P43490); assay: NAMPT activity assay, IC50 determination (fluorometric detection of NMN derivative); settings: molecular/biochemical assay, read-out: IC50 (NAMPT inhibition)
T1 construct: His tag (N); made in house; host or cells: E. coli BL21-CodonPlus (DE3)-RIL, pET21a+ vector
Description: Using our previously established high throughput screening (HTS) platform and recombinant human NAMPT[14][15], we performed a HTS on a chemical library containing 30000 small-molecules (Chemdiv, CA, USA). Our HTS targeting NAMPT was developed based on a fluorometric method for NAMPT activity assay by measuring the fluorescence of nicotinamide mononucleotide (NMN) derivative resulting from the NAMPT enzymatic product NMN through simple chemical reactions (Fig. 1A). […] These fluorescent and non-fluorescent compounds were further studied separately.
HTS was performed using our previously reported method. 0.5 μl stock of each compound (1 mM DMSO stock) was transferred to a 96-well PCR plate for screening. In the primary screening, 5 ng NAMPT in 20 μl reaction buffer [0.4 mM phosphoribosylpyrophosphate (PRPP, Sigma), 2 mM ATP, 0.02% BSA, 2 mM DTT, 12 mM MgCl2 and 50 mM Tris-HCl (pH = 7.5)] was added into each well, the plate was incubated at 37 °C for 5 min, then 4.5 μl substrate of NAM was added to initiate the enzyme reaction, resulting in a final concentration of 2% DMSO, 2 μg/ml NAMPT, 0.2 μM NAM and 20 μM compound. After reacting at 37 °C for 15 min, the enzyme reaction was terminated by heating at 95 °C for 1 min and cooling in an ice bath. The product of NMN was detected through the following approach: after adding 10 μl 20% acetophenone in DMSO and 10 μl 2 M KOH into each well, the mixture was vortex-mixed and kept in ice bath for 2 min. […] Finally, 85 μl mixtures in each well were transferred into a flat-bottom 96-well black plate (Greiner), and the fluorescence (F) was measured using a Tecan Infinity M200 plate reader (Tecan Group Ltd.) by setting the excitation and emission wavelength to 382 nm and 445 nm respectively. The last row of each 96-well plate includes six wells of background controls and six wells of reference controls. The relative enzyme activity (Activity%) regulated by specific compound was calculated according to equation (1): […]
To determine the IC50 of inhibitors, 0.5 μl compound stocks with various concentrations were added into 96-well plate. The plate was incubated at 37 °C for 5 min after addition of 20 μl reaction buffer containing NAMPT. […] The IC50 values were determined by non-linear fitting of the concentration-dependent curves with the four-parameter IC50 logistic equation.

recombinant human NAMPT [2] = biological target: T1, recombinant human NAMPT; assay: HTS / fixed-concentration NAMPT activity screen (fluorometric); format: biochemical; settings: 20 μM compound; analogues of the 46 non-fluorescent inhibitors
Description: Using our previously established high throughput screening (HTS) platform and recombinant human NAMPT[14][15], we performed a HTS on a chemical library containing 30000 small-molecules (Chemdiv, CA, USA). Our HTS targeting NAMPT was developed based on a fluorometric method for NAMPT activity assay by measuring the fluorescence of nicotinamide mononucleotide (NMN) derivative resulting from the NAMPT enzymatic product NMN through simple chemical reactions (Fig. 1A). The 30000 compounds were dissolved with dimethyl sulfoxide (DMSO); most of compounds were soluble at 10 mM stock solution (94.1%), some compounds insoluble at 10 mM were soluble at 2.5 mM stock solution (4.4%), and the remaining compounds insoluble at 2.5 mM (1.5%) were diluted further during HTS experiments (Fig. 1B). To guarantee the quality of screening, S/N ratio, CV and Z’ factors were monitored throughout the screenings, and all three indices met the requirements of HTS (Fig. 1C–E). After a primary screen and a secondary screen of all compounds at 20 μM, 242 compounds were selected as the hits of NAMPT inhibitors (NAMPT activity < 40%), and the hit rate was ~0.8% (Fig. 1F). […] All these 55 compounds were not reported as NAMPT inhibitors previously. Among the 55 compounds, we noted 46 compounds were non-fluorescent and 9 compounds were fluorescent (Fig. 1F). These fluorescent and non-fluorescent compounds were further studied separately.
HTS was performed using our previously reported method. 0.5 μl stock of each compound (1 mM DMSO stock) was transferred to a 96-well PCR plate for screening. In the primary screening, 5 ng NAMPT in 20 μl reaction buffer [0.4 mM phosphoribosylpyrophosphate (PRPP, Sigma), 2 mM ATP, 0.02% BSA, 2 mM DTT, 12 mM MgCl2 and 50 mM Tris-HCl (pH = 7.5)] was added into each well, the plate was incubated at 37 °C for 5 min, then 4.5 μl substrate of NAM was added to initiate the enzyme reaction, resulting in a final concentration of 2% DMSO, 2 μg/ml NAMPT, 0.2 μM NAM and 20 μM compound. After reacting at 37 °C for 15 min, the enzyme reaction was terminated by heating at 95 °C for 1 min and cooling in an ice bath. The product of NMN was detected through the following approach: after adding 10 μl 20% acetophenone in DMSO and 10 μl 2 M KOH into each well, the mixture was vortex-mixed and kept in ice bath for 2 min. Then 45 μl 88% formic acid was added and the mixture was incubated at 37 °C for 10 min. Finally, 85 μl mixtures in each well were transferred into a flat-bottom 96-well black plate (Greiner), and the fluorescence (F) was measured using a Tecan Infinity M200 plate reader (Tecan Group Ltd.) by setting the excitation and emission wavelength to 382 nm and 445 nm respectively. The last row of each 96-well plate includes six wells of background controls and six wells of reference controls. The relative enzyme activity (Activity%) regulated by specific compound was calculated according to equation (1):
F0 was the averaged fluorescence of six background controls, representing zero activity from a simulated enzyme reaction with only NAMPT but no NAM and compound; F100% was the averaged fluorescence of six reference controls, representing 100% activity from intact enzyme reaction without compound perturbation.
Compounds with Activity% less than 40% were considered as inhibitors and subjected to a secondary screen inhibition validation, in which another background control (FC0), a simulated enzyme reaction with NAMPT and compound but no NAM, was introduced to eliminate the direct and/or indirect influence from compound. At this stage, the Activity% was calculated according to equation (2): […]

HepG2 cells = assay: Cell viability assay (CCK-8) in HepG2 cells; format: cell-based, human; settings: 2 μM, 48 hours of incubation
Procedure: Cell viability was determined by our previous method[27] using the Cell Counting Kit-8 (CCK-8, Dojindo, Japan). In human hepatocellular carcinoma cell line HepG2, cells were seeded in 96-well plate and starved for over 12 h with serum-free DMEM at 60~70% confluency, then treated with compounds or vehicle for 48 h. To determine the IC50 values of inhibitors, compounds with various concentrations were added into the 96-well plate. 10 μl CCK-8 solution was added to the culture medium and incubated at 37 °C for 1 h. The absorbance at 450 nm (A450) was detected by a plate reader. Each experiment was carried out in triplicate in three replicate wells. The IC50 values were determined by non-linear fitting of the concentration-dependent curves with the four-parameter IC50 logistic equation.

T1 sequence (P43490 whole entry): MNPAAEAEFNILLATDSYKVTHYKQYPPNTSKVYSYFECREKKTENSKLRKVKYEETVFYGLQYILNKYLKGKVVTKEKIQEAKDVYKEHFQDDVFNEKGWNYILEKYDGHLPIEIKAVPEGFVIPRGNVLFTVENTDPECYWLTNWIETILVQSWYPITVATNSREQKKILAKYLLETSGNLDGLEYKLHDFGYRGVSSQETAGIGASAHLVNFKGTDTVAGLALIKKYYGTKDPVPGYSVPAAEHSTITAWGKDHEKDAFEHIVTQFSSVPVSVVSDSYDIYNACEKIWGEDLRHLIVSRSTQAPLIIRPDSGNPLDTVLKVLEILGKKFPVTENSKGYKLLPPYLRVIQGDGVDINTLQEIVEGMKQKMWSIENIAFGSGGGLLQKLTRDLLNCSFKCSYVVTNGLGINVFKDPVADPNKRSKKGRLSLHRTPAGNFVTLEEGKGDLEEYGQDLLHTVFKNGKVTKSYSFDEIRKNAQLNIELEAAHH

Compound | IC50 (recombinant human NAMPT [1]) [µM] | NAMPT inhibition activity at 20 μM (recombinant human NAMPT [2]) | Effect on HepG2 cell viability at 2 μM (HepG2 cells)
Cc1nn(CCCC(=O)Nc2cccc(F)c2)c(=O)c2c1sc1ccccc12 [E019-0970] | 0.298 ± 0.0321 | – | –
CC1CCN(c2c(NCc3ccc(C(=O)NCc4ccc(F)cc4)cc3)c(=O)c2=O)CC1 [C852-0431] | 0.869 ± 0.0672 | – | –
O=C(CSC1=Nc2ccccc2N=C(c2ccccn2)C1)Nc1ccc2c(c1)OCCO2 [C201-1928] | 1.45 ± 0.0517 | – | –
CCn1c(=O)c(=O)n(Cc2ccc(C(=O)NCc3cccc(Cl)c3)cc2)c2cccnc21 [F704-0076] | 1 ± 0.057 | – | –
O=C(NCCCN1CCCC1=O)c1ccc(N2CCc3ccccc32)s1 [G122-1637] | 0.411 ± 0.148 | – | –
COc1ccc(NC(=O)NCc2noc3ccccc23)cc1Cl [E567-0014] | 0.411 ± 0.0281 | – | –
CCn1c(=O)c(=O)n(Cc2ccc(C(=O)NCc3cccc(Br)c3)cc2)c2cccnc21 [F704-0251] | 0.517 ± 0.0379 | – | –
COc1ccc(OC)c(CCNC(=O)NCc2noc3ccccc23)c1 [E567-0302] | 0.401 ± 0.0112 | – | –
O=C(Nc1cccnc1)c1ccc(-n2cnnn2)cc1 [D633-0045] | 0.416 ± 0.0307 | – | –
CCn1c(=O)c(=O)n(Cc2ccc(C(=O)NCc3ccccc3F)cc2)c2cccnc21 [F704-0231] | 1.45 ± 0.143 | – | –
CC1CCN(c2c(NCc3ccc(C(=O)NCCc4ccccc4)cc3)c(=O)c2=O)CC1 [C852-0409] | 1.28 ± 0.154 | – | –
CC(=O)c1ccc(NC(=O)Cc2noc3ccccc23)cc1 [E207-0481] | 0.739 ± 0.0378 | – | –
CC(=O)C1=C(C)Nc2ccccc2S1 [1932-0007] | 0.4086 ± 0.00183 | – | –
CC(C)CCNC(=O)c1ccc(Cn2c(=O)c3cccn3c3cccnc32)cc1 [E524-1626] | 0.393 ± 0.00851 | – | –
O=C(NCc1ccc(Cl)cc1)c1ccc(CNc2c(N3CCCCC3)c(=O)c2=O)cc1 [C804-0859] | 0.704 ± 0.0167 | – | –
O=C(NCc1noc2ccccc12)NC1CCCCC1 [E567-0011] | 1.62 ± 0.0579 | – | –

Continued by falling IC50 (recombinant human NAMPT [1]), values first:

IC50 (recombinant human NAMPT [1]) [µM] | NAMPT inhibition activity at 20 μM (recombinant human NAMPT [2]) | Compound | Effect on HepG2 cell viability at 2 μM (HepG2 cells)
0.296 ± 0.00761 | – | CCn1c(=O)c(=O)n(Cc2ccc(C(=O)NCc3ccc(Cl)cc3)cc2)c2cccnc21 [F704-0088] | –
0.283 ± 0.0192 | – | CCCc1cc(Nc2ccc(C(=O)NCc3cccnc3)cc2)n2nc(-c3cccnc3)nc2n1 [D515-0654] | significant inhibition on cell viability
0.253 ± 0.0179 | – | Cc1ccccc1CCNC(=O)c1ccc(Cn2c(=O)c3cccn3c3cccnc32)cc1 [E524-1763] | –
0.25 ± 0.0407 | – | CC(=O)c1cccc(NC(=O)NCc2noc3ccccc23)c1 [E567-0248] | –
0.202 ± 0.0176 | – | COc1ccc(CCNC(=O)NCc2noc3ccccc23)c(OC)c1 [E567-0299] | –
0.172 ± 0.0173 | Yes | O=C(CSC1=Nc2ccccc2N=C(c2cccs2)C1)Nc1ccc2c(c1)OCCO2 [C201-1487] | –
0.171 ± 0.0107 | – | COc1ccc(NC(=O)NCc2noc3ccccc23)cc1 [E567-0222] | significant inhibition on cell viability
0.171 ± 0.0168 | – | Cc1cc2nc(C)c(=O)n(Cc3ccc(C(=O)NCc4ccccn4)cc3)c2cc1C [F671-0199] | –
0.14 ± 0.00731 | – | O=C(NCc1ccccc1)c1ccc(Cn2c(=O)c3cccn3c3cccnc32)cc1 [E524-1566] | significant inhibition on cell viability
0.126 ± 0.00423 | – | CSc1ccc(CCNC(=O)NCc2noc3ccccc23)cc1 [E567-0304] | –
0.118 ± 0.0107 | – | COc1ccc(-c2nnc(COc3ccc(NC(=O)c4cnccn4)cc3)o2)cc1 [M350-0814] | significant inhibition on cell viability
0.116 ± 0.0131 | – | CN1C(=O)C(C)(C)c2cc(S(=O)(=O)NCc3ccc(C(=O)NCc4cccnc4)cc3)ccc21 [E589-3083] | –
0.0978 ± 0.00313 | – | Cc1ccc(CNC(=O)c2ccc(Cn3c(=O)c4cccn4c4cccnc43)cc2)cc1 [E524-1599] | significant inhibition on cell viability
0.0869 ± 0.00277 | – | CCOC(=O)c1ccc(NC(=O)NCc2noc3ccccc23)cc1 [E567-0238] | –
0.0855 ± 0.0111 | – | Cc1cccc(CNC(=O)c2ccc(Cn3c(=O)c4cccn4c4cccnc43)cc2)c1 [E524-1627] | significant inhibition on cell viability
0.0759 ± 0.00351 | – | COc1ccc(CNC(=O)c2ccc(Cn3c(=O)c4cccn4c4cccnc43)cc2)cc1 [E524-1597] | –
0.0709 ± 0.00074 | – | O=C(NCCc1ccccc1)c1ccc(Cn2c(=O)c3cccn3c3cccnc32)cc1 [E524-1628] | –
0.0626 ± 0.00289 | – | CCc1ccc(NC(=O)NCc2noc3ccccc23)cc1 [E567-0089] | –
0.0608 ± 0.00261 | – | Cc1ccccc1-c1nnc(COc2ccc(NC(=O)c3cnccn3)cc2)o1 [M350-1052] | –
0.0602 ± 0.00363 | Yes | O=C(Nc1ccc(OCc2nnc(-c3ccccc3)o2)cc1)c1cnccn1 [M350-0100] | significant inhibition on cell viability
0.0594 ± 0.00115 | – | O=C(CSc1nc2c(c(C(F)(F)F)n1)CCc1ccccc1-2)NCCCn1ccnc1 [6466-0191] | –
